Calls of active or inactive are those of the source. How the calls were made is not given here.
Tested on: rodent lifetime carcinogenesis bioassay, tumor incidence TD50
Experiment: chronic cancer bioassays in animals – CPDB, compiled studies (AID 1745844)

c1ccc2cc(Nc3ccc(Nc4ccc5ccccc5c4)cc3)ccc2c1
inactive: TD50 (mouse, strain B6AKF1, females, oral dosing, site: any site (literature study), lesion: several types, types named in the paper, dosed 76 weeks, study length 76 weeks) 63.8 mg/kg/day | carcinogen call (mouse, strain B6AKF1, females, oral dosing, site: liver, lesion: hepatoma, dosed 76 weeks, study length 76 weeks) negative | TD50 (mouse, strain B6AKF1, females, oral dosing, site: lung, lesion: adenoma, dosed 76 weeks, study length 76 weeks) 221 mg/kg/day | carcinogen call (mouse, strain B6AKF1, males, oral dosing, site: any site (literature study), lesion: several types, types named in the paper, dosed 76 weeks, study length 76 weeks) negative | carcinogen call (mouse, strain B6AKF1, males, oral dosing, site: liver, lesion: hepatoma, dosed 76 weeks, study length 76 weeks) negative | carcinogen call (mouse, strain B6AKF1, males, oral dosing, site: lung, lesion: adenoma, dosed 76 weeks, study length 76 weeks) negative | TD50 (mouse, strain B6C3F1, females, oral dosing, site: any site (literature study), lesion: several types, types named in the paper, dosed 76 weeks, study length 76 weeks) 235 mg/kg/day | carcinogen call (mouse, strain B6C3F1, females, oral dosing, site: liver, lesion: hepatoma, dosed 76 weeks, study length 76 weeks) negative | carcinogen call (mouse, strain B6C3F1, females, oral dosing, site: lung, lesion: several types, types named in the paper, dosed 76 weeks, study length 76 weeks) negative | TD50 (mouse, strain B6C3F1, males, oral dosing, site: any site (literature study), lesion: several types, types named in the paper, dosed 76 weeks, study length 76 weeks) 25.9 mg/kg/day | TD50 (mouse, strain B6C3F1, males, oral dosing, site: liver, lesion: hepatoma, dosed 76 weeks, study length 76 weeks) 59.4 mg/kg/day | TD50 (mouse, strain B6C3F1, males, oral dosing, site: lung, lesion: adenoma, dosed 76 weeks, study length 76 weeks) 192 mg/kg/day

CC1=C[C@H]2[C@@]3(O)[C@H](C)[C@@H](O)[C@]4(O)[C@H]([C@@H]3C=C(CO)C[C@]2(O)C1=O)C4(C)C
inactive: carcinogen call (mouse, strain AKR/J, females, i.p., site: lymphoreticular system, lesion: lymphatic leukemia, dosed 104 weeks, study length 104 weeks) negative | TD50 (mouse, strain AKR/J, males, i.p., site: lymphoreticular system, lesion: lymphatic leukemia, dosed 104 weeks, study length 104 weeks) 8.26 mg/kg/day | carcinogen call (mouse, strain BALB/c, females, i.p., site: lymphoreticular system, lesion: one or several types, types not named, dosed 104 weeks, study length 104 weeks) negative | carcinogen call (mouse, strain BALB/c, males, i.p., site: lymphoreticular system, lesion: one or several types, types not named, dosed 104 weeks, study length 104 weeks) negative | carcinogen call (mouse, strain C3HeB, females, i.p., site: lymphoreticular system, lesion: one or several types, types not named, dosed 104 weeks, study length 104 weeks) negative | carcinogen call (mouse, strain C3HeB, males, i.p., site: lymphoreticular system, lesion: one or several types, types not named, dosed 104 weeks, study length 104 weeks) negative | carcinogen call (mouse, strain C57BL, females, i.p., site: lymphoreticular system, lesion: one or several types, types not named, dosed 104 weeks, study length 104 weeks) negative
active: TD50 (mouse, strain SWR, females, i.p., site: lymphoreticular system, lesion: lymphatic leukemia, dosed 104 weeks, study length 104 weeks) 2.21 mg/kg/day
92.6 mg/kg/day: TD50 (mouse, strain SJL/J, females, i.p., site: lymphoreticular system, lesion: reticulum-cell sarcoma, type B, dosed 104 weeks, study length 104 weeks)

CCCCCCCCCCN(C)N=O
active: carcinogen call (rat, strain Fischer 344, males, by gavage, site: any site (literature study), lesion: several types, types named in the paper, dosed 30 weeks, study length 102 weeks) positive | TD50 (rat, strain Fischer 344, males, by gavage, site: forestomach, lesion: carcinoma, dosed 30 weeks, study length 102 weeks) 46.6 mg/kg/day | TD50 (rat, strain Fischer 344, males, by gavage, site: forestomach, lesion: papilloma, dosed 30 weeks, study length 102 weeks) 46.6 mg/kg/day | TD50 (rat, strain Fischer 344, males, by gavage, site: liver, lesion: hepatocellular carcinoma, dosed 30 weeks, study length 102 weeks) 22.7 mg/kg/day | TD50 (rat, strain Fischer 344, males, by gavage, site: lung, lesion: adenocarcinoma, dosed 30 weeks, study length 102 weeks) 8.32 mg/kg/day | TD50 (rat, strain Fischer 344, males, by gavage, site: lung, lesion: adenoma, dosed 30 weeks, study length 102 weeks) 14.7 mg/kg/day | TD50 (rat, strain Fischer 344, males, by gavage, site: nasal cavity, lesion: several types, types named in the paper, dosed 30 weeks, study length 102 weeks) 46.6 mg/kg/day | TD50 (rat, strain Fischer 344, males, by gavage, site: urinary bladder, lesion: transitional-cell carcinoma, dosed 30 weeks, study length 102 weeks) 1.26 mg/kg/day

CSCCC(N)C(=O)O (stereo not drawn)
2000 mg/kg/day: TD50 (mouse, strain C3H/HeN, males, in feed, site: liver, lesion: several types, types named in the paper, dosed 52 weeks, study length 52 weeks)
4160 mg/kg/day: TD50 (mouse, strain C3H/HeN, males, in feed, site: liver, lesion: hepatocellular adenoma, dosed 52 weeks, study length 52 weeks)
inactive: carcinogen call (rat, strain Fischer 344, males, in feed, site: liver, lesion: neoplastic nodule, dosed 72 weeks, study length 103 weeks) negative
4470 mg/kg/day: TD50 (mouse, strain C3H/HeN, males, in feed, site: liver, lesion: hepatocellular carcinoma, dosed 52 weeks, study length 52 weeks)

CN(C)N=O
0.35 mg/kg/day: TD50 (mouse, strain C57BL, females, by gavage, site: liver, lesion: benign tumor, dosed 50 weeks, study length 72 weeks)
1.64 mg/kg/day: TD50 (rat, strain Colworth (Wistar derived), males, in drinking water, site: lung, lesion: several types, types named in the paper, dosed 176 weeks, study length 176 weeks)
21.1 mg/kg/day: TD50 (mouse, strain C57BL, males, by gavage, site: lung, lesion: adenoma, dosed 50 weeks, study length 72 weeks)
0.177 mg/kg/day: TD50 (mouse, strain A, males, in drinking water, site: lung, lesion: alveolar-cell adenoma, dosed 72 weeks, study length 72 weeks)
0.06 mg/kg/day: TD50 (mouse, strain C57BL, males, by gavage, site: any site (literature study), lesion: several types, types named in the paper, dosed 50 weeks, study length 72 weeks)
0.443 mg/kg/day: TD50 (rat, strain MRC Porton (Wistar derived), females, in feed, site: liver, lesion: one or several types, types not named, dosed 52 weeks, study length 120 weeks)
23.6 mg/kg/day: TD50 (rat, strain Colworth (Wistar derived), males, in drinking water, site: liver, lesion: intrahepatic bile duct tumor, malignant, dosed 176 weeks, study length 176 weeks)
0.429 mg/kg/day: TD50 (mouse, strain C57BL, females, by gavage, site: liver, lesion: malignant tumor, dosed 50 weeks, study length 72 weeks)
0.396 mg/kg/day: TD50 (mouse, strain BALB/c, females, in drinking water, site: any site (literature study), lesion: several types, types named in the paper, dosed 85 weeks, study length 85 weeks)
0.0964 mg/kg/day: TD50 (mouse, strain C57BL, females, by gavage, site: any site (literature study), lesion: several types, types named in the paper, dosed 50 weeks, study length 72 weeks)
1.46 mg/kg/day: TD50 (rat, strain Wistar, females, in feed, site: all sites, lesion: leukemia, dosed 96 weeks, study length 96 weeks)
0.372 mg/kg/day: TD50 (rat, strain Fischer 344, males, by gavage, site: liver, lesion: hepatocellular tumor, benign, dosed 30 weeks, study length 65 weeks) | TD50 (rat, strain Fischer 344, males, by gavage, site: lung, lesion: squamous-cell carcinoma, dosed 30 weeks, study length 65 weeks)
active: TD50 (mouse, strain BALB/c, females, in drinking water, site: lung, lesion: adenoma, dosed 85 weeks, study length 85 weeks) 0.324 mg/kg/day | TD50 (mouse, strain C57BL, females, by gavage, site: forebrain, lesion: olfactory neuroepithelioma, dosed 50 weeks, study length 72 weeks) 0.153 mg/kg/day | TD50 (mouse, strain C57BL, males, by gavage, site: forebrain, lesion: olfactory neuroepithelioma, dosed 50 weeks, study length 72 weeks) 0.161 mg/kg/day | TD50 (mouse, strain C57BL, males, by gavage, site: liver, lesion: benign tumor, dosed 50 weeks, study length 72 weeks) 0.508 mg/kg/day | TD50 (mouse, strain C57BL, males, by gavage, site: liver, lesion: malignant tumor, dosed 50 weeks, study length 72 weeks) 0.179 mg/kg/day | TD50 (rat, strain Buffalo, males, in feed, site: liver, lesion: hepatocellular carcinoma, dosed 26 weeks, study length 52 weeks) 1.76 mg/kg/day | TD50 (rat, strain Colworth (Wistar derived), females, in drinking water, site: liver, lesion: hepatocellular carcinoma, dosed 176 weeks, study length 176 weeks) 0.237 mg/kg/day | TD50 (rat, strain Colworth (Wistar derived), females, in drinking water, site: liver, lesion: hepatocellular tumor, dosed 176 weeks, study length 176 weeks) 0.145 mg/kg/day | TD50 (rat, strain Colworth (Wistar derived), females, in drinking water, site: liver, lesion: intrahepatic bile duct tumor, benign, dosed 176 weeks, study length 176 weeks) 0.0763 mg/kg/day | TD50 (rat, strain Colworth (Wistar derived), females, in drinking water, site: liver, lesion: intrahepatic bile duct tumor, dosed 176 weeks, study length 176 weeks) 0.0752 mg/kg/day | TD50 (rat, strain Colworth (Wistar derived), females, in drinking water, site: liver, lesion: mesenchymal hemangio-sarcoma, -pericytoma, or -endothelioma, malignant, dosed 176 weeks, study length 176 weeks) 0.914 mg/kg/day | TD50 (rat, strain Colworth (Wistar derived), females, in drinking water, site: liver, lesion: neoplasm of liver cell, bile duct, mesenchyme, Kupffer cell, or unknown, dosed 176 weeks, study length 176 weeks) 0.0424 mg/kg/day | TD50 (rat, strain Colworth (Wistar derived), males, in drinking water, site: liver, lesion: hepatocellular carcinoma, dosed 176 weeks, study length 176 weeks) 0.218 mg/kg/day | TD50 (rat, strain Colworth (Wistar derived), males, in drinking water, site: liver, lesion: hepatocellular tumor, dosed 176 weeks, study length 176 weeks) 0.157 mg/kg/day | TD50 (rat, strain Colworth (Wistar derived), males, in drinking water, site: liver, lesion: intrahepatic bile duct tumor, benign, dosed 176 weeks, study length 176 weeks) 0.313 mg/kg/day | TD50 (rat, strain Colworth (Wistar derived), males, in drinking water, site: liver, lesion: intrahepatic bile duct tumor, dosed 176 weeks, study length 176 weeks) 0.308 mg/kg/day | TD50 (rat, strain Colworth (Wistar derived), males, in drinking water, site: liver, lesion: mesenchymal hemangio-sarcoma, -pericytoma, or -endothelioma, malignant, dosed 176 weeks, study length 176 weeks) 0.712 mg/kg/day | TD50 (rat, strain Colworth (Wistar derived), males, in drinking water, site: liver, lesion: neoplasm of liver cell, bile duct, mesenchyme, Kupffer cell, or unknown, dosed 176 weeks, study length 176 weeks) 0.0867 mg/kg/day | TD50 (rat, strain Fischer 344, females, in drinking water, site: liver, lesion: hemangiosarcoma, dosed 30 weeks, study length 110 weeks) 0.438 mg/kg/day | TD50 (rat, strain Fischer 344, females, in drinking water, site: liver, lesion: hepatocellular carcinoma, dosed 30 weeks, study length 110 weeks) 0.135 mg/kg/day | TD50 (rat, strain Fischer 344, females, in drinking water, site: liver, lesion: several types, types named in the paper, dosed 30 weeks, study length 110 weeks) 0.0587 mg/kg/day | TD50 (rat, strain Fischer 344, males, by gavage, site: kidney, lesion: mesenchymal neoplasm, dosed 30 weeks, study length 65 weeks) 0.189 mg/kg/day | TD50 (rat, strain Fischer 344, males, by gavage, site: liver, lesion: several types, types named in the paper, dosed 30 weeks, study length 65 weeks) 0.189 mg/kg/day | TD50 (rat, strain Fischer 344, males, by gavage, site: lung, lesion: alveolar/bronchiolar adenoma, dosed 30 weeks, study length 65 weeks) 0.106 mg/kg/day | TD50 (rat, strain Fischer 344, males, by gavage, site: lung, lesion: several types, types named in the paper, dosed 30 weeks, study length 65 weeks) 0.0765 mg/kg/day | TD50 (rat, strain MRC Porton (Wistar derived), females, in feed, site: liver, lesion: one or several types, types not named, dosed 108 weeks, study length 120 weeks) 1.4 mg/kg/day | TD50 (rat, strain MRC Porton (Wistar derived), males, in feed, site: liver, lesion: one or several types, types not named, dosed 120 weeks, study length 120 weeks) 1.18 mg/kg/day | TD50 (rat, strain Wistar, females, in feed, site: liver, lesion: hemangioendothelioma, dosed 96 weeks, study length 96 weeks) 1.83 mg/kg/day | TD50 (rat, strain Wistar, females, in feed, site: liver, lesion: hepatocellular carcinoma, dosed 96 weeks, study length 96 weeks) 4.1 mg/kg/day | TD50 (rat, strain Wistar, females, in feed, site: liver, lesion: nodular hyperplasia, dosed 96 weeks, study length 96 weeks) 0.113 mg/kg/day | TD50 (rat, strain Wistar, males, in feed, site: liver, lesion: hemangioendothelioma, dosed 96 weeks, study length 96 weeks) 1.95 mg/kg/day | TD50 (rat, strain Wistar, males, in feed, site: liver, lesion: hepatocellular carcinoma, dosed 96 weeks, study length 96 weeks) 5.52 mg/kg/day | TD50 (rat, strain Wistar, males, in feed, site: liver, lesion: nodular hyperplasia, dosed 96 weeks, study length 96 weeks) 0.782 mg/kg/day | TD50 (rat, strain Wistar, males, in feed, site: testis, lesion: Leydig-cell tumor, dosed 54 weeks, study length 69 weeks) 0.136 mg/kg/day
inactive: carcinogen call (rat, strain Wistar, males, in feed, site: liver, lesion: carcinoma, dosed 54 weeks, study length 69 weeks) negative
0.822 mg/kg/day: TD50 (rat, strain Fischer 344, males, by gavage, site: liver, lesion: cholangiocellular tumor, benign, dosed 30 weeks, study length 65 weeks) | TD50 (rat, strain Fischer 344, males, by gavage, site: liver, lesion: hemangiosarcoma, dosed 30 weeks, study length 65 weeks)
